The source of these data is patent US7727960B2, “C5a receptor antagonists” (Jerini AG, priority 2003, dated 2010).

Like-named read-outs stand apart in the source and are kept apart here. Non-standard residues stand in square brackets, D forms with d. Residues, ends and D or L forms follow the SMILES beside them. No end group written: not given here. Phenylbutanoyl = Phenylbutanoyl residue at the C-terminus; NEtPhe = CCN[C@@H](Cc1ccccc1)C(=O)O; NMeF = CN[C@@H](Cc1ccccc1)C(=O)O; Cha = N[C@@H](CC1CCCCC1)C(=O)O; dCha = N[C@H](CC1CCCCC1)C(=O)O; dNMeA = CN[C@H](C)C(=O)O

The target in one assay is T1, C5a receptor (Homo sapiens, UniProt P21730).
T1 sequence (P21730 1-350): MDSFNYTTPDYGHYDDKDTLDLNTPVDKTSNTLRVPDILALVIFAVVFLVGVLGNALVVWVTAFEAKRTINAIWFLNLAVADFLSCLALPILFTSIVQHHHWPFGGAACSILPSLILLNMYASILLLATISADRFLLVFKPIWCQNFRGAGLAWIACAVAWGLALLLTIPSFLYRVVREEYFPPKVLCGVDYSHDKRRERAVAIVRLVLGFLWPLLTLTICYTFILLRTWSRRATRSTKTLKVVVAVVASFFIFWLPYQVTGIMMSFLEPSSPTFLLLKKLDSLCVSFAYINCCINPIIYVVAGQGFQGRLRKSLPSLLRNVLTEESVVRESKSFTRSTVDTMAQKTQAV
Particulars: read-out: IC50 as a measure for affinity (WO 03/033528); cited from earlier work.

Assay [1] concerns the target T2, C5aR (Homo sapiens, UniProt P21730).
T2 construct: derived from measurements with isolated membranes from polymorphonuclear neutrophilic granulocytes (PMN membranes); host or cells: isolated membranes of polymorphonuclear neutrophilic granulocytes (PMN membranes)
T2 sequence (P21730 1-350): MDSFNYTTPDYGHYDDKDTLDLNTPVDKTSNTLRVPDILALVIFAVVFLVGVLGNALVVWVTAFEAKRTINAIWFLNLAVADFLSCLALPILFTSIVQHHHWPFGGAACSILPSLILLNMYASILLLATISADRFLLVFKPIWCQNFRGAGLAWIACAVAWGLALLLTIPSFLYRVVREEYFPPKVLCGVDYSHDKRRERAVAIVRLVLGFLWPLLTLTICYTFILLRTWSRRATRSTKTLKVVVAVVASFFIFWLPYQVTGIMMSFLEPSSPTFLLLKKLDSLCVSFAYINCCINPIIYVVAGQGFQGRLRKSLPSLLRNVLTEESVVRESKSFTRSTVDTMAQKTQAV
The following applies: PMN membranes, cited from earlier work.

Assay [2] has as its target T2, C5aR. Nature of the assay: Prior-art antagonistic activity (WO 03/033528). Particulars: WO 03/033528 values. From the text: In WO 03/033528 single substitutions of various amino acids in the molecule Ac-Phe[Orn-Pro-cha-Trp-Arg](compound 1) [SEQ ID NO: 6] are reported. A decrease of the affinity to the C5aR and a decrease in antagonistic potency is described for the substitution of the Arg with homoarginine (compound 44), citrulline (compound 45), lysine ([…]), or canavanine (compound 47). […] No IC50 value is reported for canavanine. […] Apart from the effects of charged arginine substitutions (homoarginine and lysine), in particular the strong decrease in binding strength upon exchange of the charged arginine (0.45 μM) by the uncharged citrulline (6 μM) is remarkable. The antagonistic activity is reduced even more (Arg: 0.028 μM, Cit: 0.690 μM). […] This also reflects that the size of the side chain itself is not sufficient as a criterium for predicting the activity. WO 03/033528 sets forth that the arginine (1) substitution to citrulline (45) results in a compound with allegedly remarkable antagonistic properties (p. 44, line 28ff). However, the cut off rate for what is remarkable, is chosen arbitrarily and the significant 24-fold drop in activity underlines the in the prior art well known importance of the C-terminal arginine in the peptidic C5aR antagonists. […]

Another assay deals with human PMNs. Particulars: myeloperoxidase release, read-out: IC50 antagonistic activity (WO 99/00406); cited from earlier work.
Where [3] appears, read: read-out: IC50 for the binding (WO 90/09162).
Where [4] appears, read: read-out: IC50 binding to C5aR (WO 92/12168).

Regarding “Ac-Phe[Orn-Pro-cha-Trp-Arg] with the Arg substituted with homoarginine (WO 03/033528) [WO 03/033528 compound 44]”, at C5a receptor, the IC50 is 1360 nM. As to `CC(=O)N[C@@H](Cc1ccccc1)C(=O)N[C@@H](CCCCN)C(=O)N[C@@H](C)C(=O)N[C@@H](CC1CCCCC1)C(=O)N[C@@H](C)C(=O)N[C@@H](CC(C)C)C(=O)N[C@H](C)C(=O)N[C@@H](Cc1ccc(O)cc1)C(=O)O` [Ac-Phe-Lys-Ala-Cha-Ala-Leu-ala-Tyr-OH] (Ac-FKA[Cha]AL[dA]Y-OH), the IC50 on C5aR [1] (setting [3]) is 170 nM.

In the case of “(N-Ethyl)Phe-Lys-Ala-Cha-Ala-Leu-N-Methyl(D)ala-Arg-OH ([NEtPhe]KA[Cha]AL[dNMeA]R-OH; N-terminus assumed; SMILES CCN[C@@H](Cc1ccccc1)C(=O)N[C@@H](CCCCN)C(=O)N[C@@H](C)C(=O)N[C@@H](CC1CCCCC1)C(=O)N[C@@H](C)C(=O)N[C@@H](CC(C)C)C(=O)N(C)[C@H](C)C(=O)N[C@@H](CCCNC(=N)N)C(=O)O)”, the IC50 with C5aR [1] (setting [3]) was 11 nM. As to `CC(=O)N[C@@H](Cc1ccccc1)C(=O)N[C@H]1CCCNC(=O)[C@H](CCCNC(N)=O)NC(=O)[C@H](Cc2c[nH]c3ccccc23)NC(=O)[C@@H](CC2CCCCC2)NC(=O)[C@@H]2CCCN2C1=O` [Compound 10, Ac-Phe-[Orn-Pro-cha-Trp-Cit]], the “drop in activity on substitution of arginine by citrulline” value on C5aR [2] was found to be 24 fold. As for “(N-Methyl)Phe-Lys-Pro-cha-Phe-Phenylbutanoyl ([NMeF]KP[dCha]F-Phenylbutanoyl)”, the IC50 with C5aR [1] (setting [4]) is 2600 nM. Turning to “Me-Phe-Lys-Pro-cha-Trp-arg (FKPXWX; N-methyl, D-cha, D-Arg; oligopeptide with antagonistic activity at the C5a receptor)”, the IC50 with human PMNs is 85 nM.

In the case of “(N-Methyl)Phe-Lys-Pro-cha-ψ{CH2- N(CH2CH2C6H5)}-Arg-OH”, the IC50 with C5aR [1] (setting [4]) is 360 nM.
